Laboratory results reported in patent US7452865B2, “Antagonistic analogs of GH RH (2003)” (The Administrare's of the Tulane Educational Fund, priority 2004, dated 2008).
Where “and” joins values, the source holds several entries; their conditions need not be identical. Equal entries are not always repeated.

Test system: hGH-RH(1-29)NH2 induced GH release
Assay: Inhibition of GH release in superfused rat pituitary system
Type: cell-based
Procedure: The analogs were tested in vitro in a test described earlier (S. Vigh and A. V Schally, Peptides 5:241-[…], 1984) with modification (Z. Rekasi and A. V. Schally, P.N.A.S. 90:2146-2149, 1993).
Briefly, the cells are preincubated with peptides for 9 minutes (3 mL) at various concentrations. Immediately after the incubation, 1 nM hGH-RH(1-29)NH2 is administered for 3 minutes (1 mL) 10 minute response). To check the duration of the antagonistic effect of the analogue, 1 nM hGH-RH(1-29)NH2 is applied 30, 60, 90, and 120 minutes later for 3 minutes [30, 60, 90, 120 min responses]. Net integral values of the GH responses are evaluated. GH responses are compared to and expressed as percent of the original GH response induced by 1 nM GH-RH(1-29)NH2 The effect of the new antagonists are compared to that of [Ac-Tyr^1, D-Arg^2]hGH-RH(1-29)NH2, the “Standard antagonist”.
Rat GH levels in aliquots of undiluted and diluted superfusion samples were measured by double-antibody radioimmunoassay using materials supplied by the National Hormone and Pituitary Program, Baltimore, Md. The results of RIA were analyzed with a computer program developed in our institute (V. Csernus and A. V. Schally, in Neuroendocrine Research Methods, Harwood Academic (Greenstein, B. D. ed., London, pp. 71-109, 1991), hereby incorporated by reference.

[1] = antagonist 30 nM, 1 nM hGH-RH(1-29)NH2 at 0 min
[2] = antagonist 30 nM, 1 nM hGH-RH(1-29)NH2 at 30 min
[3] = antagonist 30 nM, 1 nM hGH-RH(1-29)NH2 at 60 min
[4] = antagonist 30 nM, 1 nM hGH-RH(1-29)NH2 at 90 min
[5] = antagonist 30 nM, 1 nM hGH-RH(1-29)NH2 at 120 min

Substance: [HOOC(CH2)14CO-Tyr^1, D-Arg^2, Phe(pCl)^6, Arg^9, Abu^15, Nle^27, D-Arg^28, Har^29]hGH-RH(1-29)NH2 [Peptide 13]
- GH response (% of control) 0 min [1]: 87 % of control
- GH response (% of control) 30 min [2]: 77 % of control
- GH response (% of control) 60 min [3]: 76 % of control
- GH response (% of control) 90 min [4]: 71 % of control
- GH response (% of control) 120 min [5]: 73 % of control

Substance: [Hca-Tyr^1, D-Arg^2, Phe(pCl)^6, Har, Tyr(Me)^10, Abu^15, Nle^27, D-Arg^28, Har^29, Har^30]hGH-RH(1-30)NH2 [Peptide 53]
- GH response (% of control) 0 min [1]: 43 % of control
- GH response (% of control) 30 min [2]: 42 % of control
- GH response (% of control) 60 min [3]: 40 % of control
- GH response (% of control) 90 min [4]: 36 % of control
- GH response (% of control) 120 min [5]: 46 % of control

Substance: [Hca-Tyr^1, D-Arg^2, Phe(pCl)^6, Har^9, Tyr(Me)^10, Abu^15, Nle^27, D-Arg^28, Agm^29]hGH-RH(1-29) [Peptide 51]
- GH response (% of control) 0 min [1]: 64 % of control and 52 % of control and 87 % of control
- GH response (% of control) 30 min [2]: 36 % of control and 43 % of control and 35 % of control
- GH response (% of control) 60 min [3]: 31 % of control and 57 % of control and 46 % of control
- GH response (% of control) 90 min [4]: 56 % of control and 51 % of control
- GH response (% of control) 120 min [5]: 58 % of control and 61 % of control

Substance: [Hca-Tyr^1, D-Arg^2, Phe(pCl)^6, Har^9, Tyr(Me)^10, Abu^15, Nle^27, D-Arg^28, Har^29, Agm^30]hGH-RH(1-30) [Peptide 59]
- GH response (% of control) 0 min [1]: 72 % of control and 61 % of control and 93 % of control and 47 % of control
- GH response (% of control) 30 min [2]: 49 % of control and 50 % of control and 43 % of control and 27 % of control
- GH response (% of control) 60 min [3]: 46 % of control and 48 % of control and 60 % of control and 37 % of control
- GH response (% of control) 90 min [4]: 38 % of control and 47 % of control and 57 % of control and 44 % of control
- GH response (% of control) 120 min [5]: 76 % of control and 47 % of control

Substance: [Hca-Tyr^1, D-Arg^2, Phe(pCl)^6, Har^9, Tyr(Me)^10, Abu^15, Nle^27, D-Arg^28, Har^29, D-Arg^30]hGH-RH(1-29)NH2 [Peptide 58]
- GH response (% of control) 0 min [1]: 78 % of control and 94 % of control and 64 % of control
- GH response (% of control) 30 min [2]: 53 % of control and 41 % of control
- GH response (% of control) 60 min [3]: 56 % of control and 57 % of control and 59 % of control
- GH response (% of control) 90 min [4]: 47 % of control and 64 % of control and 50 % of control
- GH response (% of control) 120 min [5]: 64 % of control and 69 % of control

Substance: [Hca-Tyr^1, D-Arg^2, Phe(pCl)^6, Har^9, Tyr(Me)^10, Abu^15, Nle^27, D-Arg^28, Har^29, Har^30]hGH-RH(1-30)NHEt [Peptide 56]
- GH response (% of control) 0 min [1]: 76 % of control
- GH response (% of control) 30 min [2]: 83 % of control
- GH response (% of control) 60 min [3]: 92 % of control
- GH response (% of control) 90 min [4]: 80 % of control
- GH response (% of control) 120 min [5]: 68 % of control

Substance: [Hca-Tyr^1, D-Arg^2, Phe(pCl)^6, Har^9, Tyr(Me)^10, Abu^15, Nle^27, D-Arg^28, Har^29]hGH-RH(1-29)NH2 [Peptide 45]
- GH response (% of control) 0 min [1]: 91 % of control and 100 % of control
- GH response (% of control) 30 min [2]: 100 % of control
- GH response (% of control) 60 min [3]: 100 % of control
- GH response (% of control) 90 min [4]: 100 % of control
- GH response (% of control) 120 min [5]: 99 % of control

Substance: [Ipa-Tyr^1, D-Arg^2, Phe(pCl)^6, Har^9, Tyr(Me)^10, Abu^15, Nle^27, D-Arg^28, Har^29, Har^30]hGH-RH(1-30)NH2 [Peptide 55]
- GH response (% of control) 0 min [1]: 93 % of control
- GH response (% of control) 30 min [2]: 63 % of control
- GH response (% of control) 60 min [3]: 96 % of control
- GH response (% of control) 90 min [4]: 61 % of control
- GH response (% of control) 120 min [5]: 93 % of control

Substance: [PhAc-Arg^0, D-Arg^2, Phe(pCl)^6, Arg^9, Abu^15, Nle^27, D-Arg^28, Har^29]hGH-RH(1-29)NH2 [Peptide 18]
- GH response (% of control) 0 min [1]: 21 % of control
- GH response (% of control) 30 min [2]: 71 % of control
- GH response (% of control) 60 min [3]: 61 % of control
- GH response (% of control) 90 min [4]: 75 % of control
- GH response (% of control) 120 min [5]: 63 % of control

Substance: [PhAc-D-Arg^0, D-Arg^2, Phe(pCl)^6, Arg^9, Abu^15, Nle^27, D-Arg^28, Har^29]hGH-RH(1-29)NH2 [Peptide 19]
- GH response (% of control) 0 min [1]: 62 % of control
- GH response (% of control) 30 min [2]: 64 % of control
- GH response (% of control) 60 min [3]: 66 % of control
- GH response (% of control) 90 min [4]: 82 % of control
- GH response (% of control) 120 min [5]: 74 % of control

Substance: [PhAc-Tyr^1, D-Arg^2, Phe(pCl)^5, Har^9, Tyr(Me)^10, Cit^11, Abu^15, Nle^27, D-Arg^28, Har^29]hGH-RH(1-29)NH2 [Peptide 65]
- GH response (% of control) 0 min [1]: 67 % of control
- GH response (% of control) 30 min [2]: 80 % of control
- GH response (% of control) 60 min [3]: 89 % of control
- GH response (% of control) 90 min [4]: 97 % of control
- GH response (% of control) 120 min [5]: 79 % of control

Substance: [PhAc-Tyr^1, D-Arg^2, Phe(pCl)^6, Abu^8, Arg^9, Abu^15, Nle^27, D-Arg^28, Har^29]hGH-RH(1-29)NH2 [Peptide 27]
- GH response (% of control) 0 min [1]: 19 % of control
- GH response (% of control) 30 min [2]: 15 % of control
- GH response (% of control) 60 min [3]: 23 % of control
- GH response (% of control) 90 min [4]: 23 % of control
- GH response (% of control) 120 min [5]: 61 % of control

Substance: [PhAc-Tyr^1, D-Arg^2, Phe(pCl)^6, Amp^9, Abu^15, Nle^27, D-Arg^28, Har^29]hGH-RH(1-29)NH2 [Peptide 68]
- GH response (% of control) 0 min [1]: 37 % of control
- GH response (% of control) 30 min [2]: 22 % of control
- GH response (% of control) 60 min [3]: 33 % of control
- GH response (% of control) 90 min [4]: 29 % of control
- GH response (% of control) 120 min [5]: 33 % of control

Substance: [PhAc-Tyr^1, D-Arg^2, Phe(pCl)^6, Arg^9, Abu^15, Nle^27, D-Arg^28, Har^29]hGH-RH(1-29)NHEt [Peptide 48]
- GH response (% of control) 0 min [1]: 22 % of control
- GH response (% of control) 30 min [2]: 21 % of control
- GH response (% of control) 60 min [3]: 44 % of control
- GH response (% of control) 90 min [4]: 44 % of control
- GH response (% of control) 120 min [5]: 47 % of control

Substance: [PhAc-Tyr^1, D-Arg^2, Phe(pCl)^6, Arg^9, Abu^15, Nle^27, Har^28, D-Arg^29, hGH-RH(1-29)NH2 [Peptide 15]
- GH response (% of control) 0 min [1]: 28 % of control
- GH response (% of control) 30 min [2]: 13 % of control
- GH response (% of control) 60 min [3]: 11 % of control
- GH response (% of control) 90 min [4]: 36 % of control
- GH response (% of control) 120 min [5]: 21 % of control

Substance: [PhAc-Tyr^1, D-Arg^2, Phe(pCl)^6, Arg^9, Amp^10, Abu^15, Nle^27, D-Arg^28, Har^29]hGH-RH(1-29)NH2 [Peptide 30]
- GH response (% of control) 0 min (antagonist 10 nM, 0 min): 60 % of control
- GH response (% of control) 30 min (antagonist 10 nM, 30 min): 24 % of control
- GH response (% of control) 60 min (antagonist 10 nM, 60 min): 34 % of control
- GH response (% of control) 90 min (antagonist 10 nM, 90 min): 32 % of control
- GH response (% of control) 120 min (antagonist 10 nM, 120 min): 53 % of control
- GH response (% of control) 0 min [1]: 18 % of control
- GH response (% of control) 30 min [2]: 11 % of control
- GH response (% of control) 60 min [3]: 7 % of control
- GH response (% of control) 90 min [4]: 7 % of control
- GH response (% of control) 120 min [5]: 8 % of control
- endocrine antagonistic potency: inhibition of the GH release stimulated by hGH-RH(1-29)NH2 (in words) (general statement, in vitro and in vivo): high endocrine antagonistic potencies
